Reference: patent US9247741B2, “Use of macrocyclic picolinamides as fungicides” (DOW AGROSCIENCES LLC, priority 2013, dated 2016)
Like-named read-outs stand apart in the source and are kept apart here.

Key:
Format in all cases: in vivo
Alternaria solani = assay: Tomato early blight (ALTESO) disease control; details: 24 h, 1 Day Protectant, read-out: ALTESO disease control rating
Description: Technical grades of materials were dissolved in acetone, which were then mixed with nine volumes of water containing 110 ppm Triton X-100. The fungicide solutions were applied onto wheat seedlings using an automated booth sprayer to run-off. All sprayed plants were allowed to air dry prior to further handling. All fungicides were evaluated using the aforementioned method for their activity vs. all target diseases. Wheat leaf blotch and brown rust activity were also evaluated using track spray applications, in which case the fungicides were formulated as EC formulations, containing 0.1% Trycol 5941 in the spray solutions. Wheat plants (variety Yuma) were grown from seed in a greenhouse in 50% mineral soil/50% soil-less Metro mix until the first leaf was fully emerged, with 7-10 seedlings per pot. These plants were inoculated with an aqueous spore suspension of Septoria tritici either prior to or after fungicide treatments. After inoculation the plants were kept in 100% relative humidity (one day in a dark dew chamber followed by two to three days in a lighted dew chamber at 20° C.) to permit spores to germinate and infect the leaf. The plants were then transferred to a greenhouse set at 20° C. for disease to develop. When disease symptoms were fully expressed on the l^st leaves of untreated plants, infection levels were assessed on a scale of 0 to 100 percent disease severity. Percent disease control was calculated using the ratio of disease severity on treated plants relative to untreated plants. Evaluation of Fungicidal Activity: Tomato Early Blight (Alternaria solani; Bayer Code […]) Tomato plants (variety Outdoor girl) were propagated in soil-less Metro mix, with each pot having one plant, and used when 12 to 14 days old. Test plants were inoculated with an aqueous spore suspension of Alternaria solani 24 hr after fungicide treatments. After inoculation the plants were kept in 100% relative humidity (one day in a dark dew chamber followed by two to three days in a lighted dew chamber at 20° C.) to permit spores to germinate and infect the leaf. The plants were then transferred to a growth room at 22° C. for disease to develop. Fungicide formulation, application and disease assessment on the sprayed leaves followed the procedures as described in the Example A.

[1] = system: Magnaporthe grisea; Anamorph: Pyricularia oryzae; details: 1 Day Protectant, 100 ppm, rice
Puccinia triticina = assay: Wheat brown rust (PUCCRT) disease control on wheat seedlings; details: for pest or weed control at 121.5 g/ha: 121.5 g/H (low volume track spray); for pest or weed control at 100 ppm: 100 ppm (high volume)
Description: Technical grades of materials were dissolved in acetone, which were then mixed with nine volumes of water containing 110 ppm Triton X-100. The fungicide solutions were applied onto wheat seedlings using an automated booth sprayer to run-off. All sprayed plants were allowed to air dry prior to further handling. All fungicides were evaluated using the aforementioned method for their activity vs. all target diseases. Wheat leaf blotch and brown rust activity were also evaluated using track spray applications, in which case the fungicides were formulated as EC formulations, containing 0.1% Trycol 5941 in the spray solutions. Wheat plants (variety Yuma) were grown from seed in a greenhouse in 50% mineral soil/50% soil-less Metro mix until the first leaf was fully emerged, with 7-10 seedlings per pot. These plants were inoculated with an aqueous spore suspension of Septoria tritici either prior to or after fungicide treatments. After inoculation the plants were kept in 100% relative humidity (one day in a dark dew chamber followed by two to three days in a lighted dew chamber at 20° C.) to permit spores to germinate and infect the leaf. The plants were then transferred to a greenhouse set at 20° C. for disease to develop. When disease symptoms were fully expressed on the l^st leaves of untreated plants, infection levels were assessed on a scale of 0 to 100 percent disease severity. Percent disease control was calculated using the ratio of disease severity on treated plants relative to untreated plants. Evaluation of Fungicidal Activity: Wheat Brown Rust (Puccinia triticina; Synonym: Puccinia recondite f sp. tritici; Bayer code PUCCRT) Wheat plants (variety Yuma) were grown from seed in a greenhouse in 50% mineral soil/50% soil-less Metro mix until the first leaf was fully emerged, with 7-10 seedlings per pot. These plants were inoculated with an aqueous spore suspension of Puccinia triticina either prior to or after fungicide treatments. After inoculation the plants were kept in a dark dew room at 22° C. with 100% relative humidity overnight to permit spores to germinate and infect the leaf. The plants were then transferred to a greenhouse set at 24° C. for disease to develop. Fungicide formulation, application and disease assessment followed the procedures as described in the Example A.

Cercospora beticola = assay: Leaf spot of sugar beets (CERCBE) disease control; details: 24 h, 1 Day Protectant, sugar beet, read-out: CERCBE disease control rating
Description: Technical grades of materials were dissolved in acetone, which were then mixed with nine volumes of water containing 110 ppm Triton X-100. The fungicide solutions were applied onto wheat seedlings using an automated booth sprayer to run-off. All sprayed plants were allowed to air dry prior to further handling. All fungicides were evaluated using the aforementioned method for their activity vs. all target diseases. Wheat leaf blotch and brown rust activity were also evaluated using track spray applications, in which case the fungicides were formulated as EC formulations, containing 0.1% Trycol 5941 in the spray solutions. Wheat plants (variety Yuma) were grown from seed in a greenhouse in 50% mineral soil/50% soil-less Metro mix until the first leaf was fully emerged, with 7-10 seedlings per pot. These plants were inoculated with an aqueous spore suspension of Septoria tritici either prior to or after fungicide treatments. After inoculation the plants were kept in 100% relative humidity (one day in a dark dew chamber followed by two to three days in a lighted dew chamber at 20° C.) to permit spores to germinate and infect the leaf. The plants were then transferred to a greenhouse set at 20° C. for disease to develop. When disease symptoms were fully expressed on the l^st leaves of untreated plants, infection levels were assessed on a scale of 0 to 100 percent disease severity. Percent disease control was calculated using the ratio of disease severity on treated plants relative to untreated plants. Evaluation of Fungicidal Activity: Leaf Spot of Sugar Beets (Cercospora beticola; Bayer Code CERCBE) Sugar beet plants (variety HH88) were grown in soil-less Metro mix and trimmed regularly to maintain a uniform plant size prior to test. Plants were inoculated with a spore suspension 24 hr after fungicide treatments. Inoculated plants were kept in a dew chamber at 22° C. for 48 hr then incubated in a greenhouse set at 24° C. under a clear plastic hood with bottom ventilation until disease symptoms were fully expressed. Fungicide formulation, application and disease assessment on the sprayed leaves followed the procedures as described in the Example A.

[2] = 24 h, 1 Day Protectant, read-out: PUCCRT 1DP disease control rating
[3] = 72 h, 3 Day Curative, read-out: PUCCRT 3DC disease control rating

Row | SMILES | pest or weed control at 100 ppm (Alternaria solani) [%] | PYRIOR disease control rating [1] | pest or weed control at 121.5 g/ha (Puccinia triticina; [2]) [%] | pest or weed control at 121.5 g/ha (Puccinia triticina; [3]) [%] | pest or weed control at 100 ppm (Cercospora beticola) [%] | pest or weed control at 100 ppm (Puccinia triticina; [2]) [%] | pest or weed control at 100 ppm (Puccinia triticina; [3]) [%]
1 | CCCC[C@H]1[C@H](C)OC(=O)[C@@H](NC(=O)c2nccc(OC)c2OCOC(C)=O)CCC[C@@H]1Oc1ccccc1 [Compound 33] | > 70 | A (>70) | > 70 | > 70 | > 70 |  | 
2 | COc1ccnc(C(=O)N[C@H]2CCC[C@H](OCC3CC3)[C@@H](Cc3ccc(F)cc3)[C@H](C)OC2=O)c1OCOC(C)=O [Compound 61] | < 70 | A (>70) | > 70 | > 70 | > 70 |  | 
3 | CCCO[C@H]1CCC[C@H](NC(=O)c2nccc(OC)c2OC(C)=O)C(=O)O[C@@H](C)[C@@H]1CCC(C)C [Compound 74, 2-(((3S,7S,8S,9S)-8-isopentyl-9-methyl-2-oxo-7-propoxyoxonan-3-yl)carbamoyl)-4-methoxypyridin-3-yl acetate] | > 70 | A (>70) | > 70 | > 70 | > 70 |  | 
4 | CCCC[C@H]1[C@H](C)OC(=O)[C@@H](NC(=O)c2nccc(OC)c2OCOC(C)=O)CCC[C@@H]1OCC1CC1 [Compound 73] | < 70 | A (>70) | > 70 | > 70 | > 70 |  | 
5 | CCCO[C@H]1CCC[C@H](NC(=O)c2nccc(OC)c2OCOC(C)=O)C(=O)O[C@@H](C)[C@@H]1CCC(C)C [Compound 25, ((2-(((3S,7S,8S,9S)-8-isopentyl-9-methyl-2-oxo-7-propoxyoxonan-3-yl)carbamoyl)-4-methoxypyridin-3-yl)oxy)methyl acetate] | > 70 |  | > 70 | > 70 | > 70 |  | 
6 | CCCO[C@H]1CCC[C@H](NC(=O)c2nccc(OC)c2OC(C)=O)C(=O)O[C@@H](C)[C@@H]1Cc1ccccc1 [Compound 70] | > 70 | A (>70) | > 70 | > 70 | > 70 | > 70 | > 70
7 | COc1ccnc(C(=O)N[C@H]2CCC[C@H](Oc3ccccc3)[C@@H](CCC(C)C)[C@H](C)OC2=O)c1OC(C)=O [Compound 36] | > 70 |  | > 70 | < 70 | > 70 |  | 
8 | COc1ccnc(C(=O)N[C@H]2CCC[C@H](Oc3ccccc3)[C@@H](CCC(C)C)[C@H](C)OC2=O)c1OCOC(C)=O [Compound 40] | > 70 | A (>70) | > 70 | > 70 | > 70 |  | 
